The values that follow come from patent US8541588B2, “Sulfonamide derivatives” (Pfizer Limited, priority 2009, dated 2013).

T1 sequence (Q15858 whole entry): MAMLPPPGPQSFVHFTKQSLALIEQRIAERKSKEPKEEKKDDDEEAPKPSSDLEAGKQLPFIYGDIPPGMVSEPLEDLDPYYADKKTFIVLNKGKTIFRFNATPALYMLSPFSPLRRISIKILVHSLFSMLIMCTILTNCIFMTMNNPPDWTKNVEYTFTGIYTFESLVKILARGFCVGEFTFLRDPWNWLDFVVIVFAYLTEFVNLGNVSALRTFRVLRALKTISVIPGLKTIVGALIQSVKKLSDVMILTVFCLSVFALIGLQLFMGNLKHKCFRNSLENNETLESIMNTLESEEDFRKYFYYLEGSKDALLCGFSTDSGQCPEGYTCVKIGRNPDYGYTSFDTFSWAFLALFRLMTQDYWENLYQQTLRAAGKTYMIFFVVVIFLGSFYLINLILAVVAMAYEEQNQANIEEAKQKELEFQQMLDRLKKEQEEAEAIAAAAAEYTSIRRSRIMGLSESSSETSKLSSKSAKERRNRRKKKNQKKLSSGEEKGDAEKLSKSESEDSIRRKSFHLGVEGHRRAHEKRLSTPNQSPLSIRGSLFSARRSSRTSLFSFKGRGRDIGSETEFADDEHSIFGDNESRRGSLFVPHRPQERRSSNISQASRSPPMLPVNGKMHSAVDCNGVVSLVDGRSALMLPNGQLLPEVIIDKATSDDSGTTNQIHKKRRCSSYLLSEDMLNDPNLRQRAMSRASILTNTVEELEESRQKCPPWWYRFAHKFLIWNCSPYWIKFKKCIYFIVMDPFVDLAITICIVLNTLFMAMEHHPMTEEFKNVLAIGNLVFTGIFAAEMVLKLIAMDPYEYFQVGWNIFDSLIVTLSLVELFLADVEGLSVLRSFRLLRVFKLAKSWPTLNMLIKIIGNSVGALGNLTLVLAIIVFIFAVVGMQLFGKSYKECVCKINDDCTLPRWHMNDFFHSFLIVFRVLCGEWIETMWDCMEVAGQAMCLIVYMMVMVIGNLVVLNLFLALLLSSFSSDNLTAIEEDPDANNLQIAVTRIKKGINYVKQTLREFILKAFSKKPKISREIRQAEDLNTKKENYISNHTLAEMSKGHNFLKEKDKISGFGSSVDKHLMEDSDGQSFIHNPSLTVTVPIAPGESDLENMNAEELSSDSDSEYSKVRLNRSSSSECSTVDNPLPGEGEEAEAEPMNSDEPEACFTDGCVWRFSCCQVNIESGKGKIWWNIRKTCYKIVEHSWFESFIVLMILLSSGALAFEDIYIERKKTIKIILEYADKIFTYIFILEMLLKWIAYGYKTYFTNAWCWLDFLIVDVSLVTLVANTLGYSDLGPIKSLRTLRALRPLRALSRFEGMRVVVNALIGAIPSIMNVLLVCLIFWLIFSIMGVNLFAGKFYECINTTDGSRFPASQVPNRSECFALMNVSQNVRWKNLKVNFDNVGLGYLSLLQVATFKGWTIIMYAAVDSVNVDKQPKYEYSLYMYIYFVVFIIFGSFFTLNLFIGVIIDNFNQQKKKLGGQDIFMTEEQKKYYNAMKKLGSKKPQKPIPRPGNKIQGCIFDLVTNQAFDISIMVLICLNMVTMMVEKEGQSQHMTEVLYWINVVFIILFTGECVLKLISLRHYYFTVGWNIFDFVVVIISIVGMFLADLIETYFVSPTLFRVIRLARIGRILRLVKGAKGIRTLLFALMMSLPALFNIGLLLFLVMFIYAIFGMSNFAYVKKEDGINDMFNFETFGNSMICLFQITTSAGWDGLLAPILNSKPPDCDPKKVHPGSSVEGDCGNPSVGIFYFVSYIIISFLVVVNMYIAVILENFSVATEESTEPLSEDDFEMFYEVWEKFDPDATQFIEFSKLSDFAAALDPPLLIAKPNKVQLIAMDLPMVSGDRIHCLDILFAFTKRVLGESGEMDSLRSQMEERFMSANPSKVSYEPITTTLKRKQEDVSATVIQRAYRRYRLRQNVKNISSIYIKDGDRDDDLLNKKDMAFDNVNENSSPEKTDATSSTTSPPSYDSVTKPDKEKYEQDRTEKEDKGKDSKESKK

The first experiment has as its target T1, Nav1.7 (or SCN9A) channel; HEK cells stably transfected with hSCN9A (Homo sapiens, UniProt Q15858).
T1 construct: expressed in transfected cells
Description: Nav1.7 block, PatchXpress 7000 automated whole-cell voltage clamp, estimated IC50 (EIC50). The format is cell-based. To be noted: PatchXpress platform; hSCN9A HEK cells held at V1/2 of inactivation; estimated IC50.
Consider `O=S(=O)(Nc1nccs1)c1ccc(Oc2ccc(-c3ccccc3)cc2)c(F)c1` [Example 247, 4-(biphenyl-4-yloxy)-3-fluoro-N-thiazol-2-yl-benzenesulfonamide], for which the IC50 – broadly, the point on the concentration scale where inhibition reaches its midpoint – is 2.95 µM.

Regarding `Cn1nccc1-c1cc(Cl)ccc1Oc1ccc(S(=O)(=O)Nc2nccs2)cc1C#N` [Example 170, 4-[4-Chloro-2-(1-methyl-1H-pyrazol-5-yl)phenoxy]-3-cyano-N-1,3-thiazol-2-ylbenzenesulfonamide], the IC50 is 0.01 µM. Same read-out and setting: under `CC(C)(C)n1nccc1-c1cc(F)ccc1Oc1ccc(S(=O)(=O)Nc2nccs2)cc1F` [Example 217, 4-(2-(1-tert-butyl-1H-pyrazol-5-yl)-4-fluorophenoxy)-3-fluoro-N-(thiazol-2-yl)benzenesulfonamide] stands 0.51 µM; under `Cn1nccc1-c1ccc(Oc2ccc(S(=O)(=O)Nc3nccs3)cc2C#N)c(Cl)c1` [Example 179, 4-(2-chloro-4-(1-methyl-1H-pyrazol-5-yl)phenoxy)-3-cyano-N-(thiazol-2-yl)benzenesulfonamide], 2.19 µM; under `CCOC(=O)Cn1nccc1-c1cc(Cl)ccc1Oc1ccc(S(=O)(=O)Nc2ncns2)cc1C#N` [Example 29, ethyl 2-(5-(2-(4-(N-1,2,4-thiadiazol-5-ylsulfamoyl)-2-cyanophenoxy)-5-chlorophenyl)-1H-pyrazol-1-yl)acetate], 0.23 µM.

Take `Cn1nc(-c2ccccc2)cc1Oc1ccc(S(=O)(=O)Nc2ncns2)cc1C#N` [Example 82, 3-cyano-4-[(1-methyl-3-phenyl-1H-pyrazol-5-yl)oxy]-N-1,2,4-thiadiazol-5-ylbenzenesulfonamide]: the IC50 is 37.2 µM.

Consider `Cn1nccc1-c1cc(F)cc(F)c1Oc1ccc(S(=O)(=O)Nc2ncns2)cc1C#N` [Example 73, 3-cyano-4-[2,4-difluoro-6-(1-methyl-1H-pyrazol-5-yl)phenoxy]-N-1,2,4-thiadiazol-5-ylbenzenesulfonamide], for which the IC50 is 23.4 µM. On the same count and under the same terms, as for `NC(=O)c1cc(S(=O)(=O)Nc2nccs2)ccc1Oc1ccc(-c2cc(C(F)(F)F)n[nH]2)cc1` [Example 203, 5-(N-thiazol-2-ylsulfamoyl)-2-(4-(3-(trifluoromethyl)-1H-pyrazol-5-yl)phenoxy)benzamide], the figure is 7.48 µM; as for `O=S(=O)(Nc1ncc(Cl)s1)c1ccc(Oc2ccccc2-c2ccccc2)c(F)c1` [Example 147, 4-(Biphenyl-2-yloxy)-N-(5-chloro-thiazol-2-yl)-3-fluoro-benzenesulfonamide], 1.51 µM. Still for that read-out and setting: as for `O=S(=O)(Nc1ncns1)c1cc(F)c(Oc2ccccc2-c2ccccc2)cc1F` [Example 266, 4-(biphenyl-2-yloxy)-2,5-difluoro-N-1,2,4-thiadiazol-5-ylbenzenesulfonamide], the figure is 0.1 µM; as for `Cc1ccc(Oc2ccc(S(=O)(=O)Nc3ncns3)cc2C#N)c(-c2ccccc2)n1` [Example 12, 3-cyano-4-[(6-methyl-2-phenylpyridin-3-yl)oxy]-N-1,2,4-thiadiazol-5-ylbenzenesulfonamide], 0.72 µM; as for `N#Cc1cc(S(=O)(=O)Nc2cc(C(F)(F)F)ncn2)ccc1Oc1ccccc1-c1ccccc1` [Example 115, 4-(biphenyl-2-yloxy)-3-cyano-N-[6-(trifluoromethyl)pyrimidin-4-yl]benzenesulfonamide], greater than 10 µM.

Staying with this experiment, now noted: estimated IC50; hSCN9A HEK cells, PatchXpress platform; Examples 283-814.
As to `Cn1nccc1-c1cc(F)ccc1Oc1ccc(S(=O)(=O)Nc2ncc(Cl)s2)cc1C#N` [Example 596, N-(5-Chloro-1,3-thiazol-2-yl)-3-cyano-4-[4-fluoro-2-(1-methyl-1H-pyrazol-5-yl)phenoxy]benzenesulfonamide], the IC50 is 0.079 µM. The same measure, in the same setting: as for `N#Cc1cc(S(=O)(=O)Nc2nccs2)ccc1Oc1ccc(F)cc1-c1cnn(CC(F)(F)F)c1` [Example 641, 3-cyano-4-{4-fluoro-2-[1-(2,2,2-trifluoroethyl)-1H-pyrazol-4-yl]phenoxy}-N-1,3-thiazol-2-ylbenzenesulfonamide], the figure is 1.3 µM; as for `CN1CC(n2nccc2-c2cc(Cl)ccc2Oc2cc(F)c(S(=O)(=O)Nc3cscn3)cc2Cl)C1` [Example 730, 5-chloro-4-{4-chloro-2-[1-(1-methylazetidin-3-yl)-1H-pyrazol-5-yl]phenoxy}-2-fluoro-N-1,3-thiazol-4-ylbenzenesulfonamide], 0.0099 µM. The same measure, in the same setting: under `Cn1nc(C(F)(F)F)cc1-c1ccc(Oc2ccc(S(=O)(=O)Nc3ncc(F)s3)cc2C#N)c(F)c1` [Example 535, 3-cyano-4-{2-fluoro-4-[1-methyl-3-(trifluoromethyl)-1H-pyrazol-5-yl]phenoxy}-N-(5-fluoro-1,3-thiazol-2-yl)benzenesulfonamide] stands 0.17 µM; under `O=S(=O)(Nc1nncs1)c1ccc(Oc2ccc(Cl)cc2-c2ccn[nH]2)c(Cl)c1` [Example 747, 3-chloro-4-[4-chloro-2-(1H-pyrazol-5-yl)phenoxy]-N-1,3,4-adiazol-2-ylbenzenesulfonamide], 0.05 µM. Still for that read-out and setting: as for `N#Cc1cc(S(=O)(=O)Nc2ncc(F)s2)ccc1Oc1ccc(I)cc1-c1ccn[nH]1` [Example 713, 3-Cyano-N-(5-fluoro-1,3-thiazol-2-yl)-4-[4-iodo-2-(1H-pyrazol-5-yl)phenoxy]benzenesulfonamide], the figure is 0.0024 µM; as for `Cc1nn(C)c(C)c1Cc1ccc(Oc2ccc(S(=O)(=O)Nc3ccc(F)cn3)cc2C#N)cc1` [Example 565, 3-cyano-N-(5-fluoropyridin-2-yl)-4-{4-[(1,3,5-trimethyl-1H-pyrazol-4-yl)methyl]phenoxy}benzenesulfonamide], 54 µM; as for `Cn1nccc1-c1ccc(I)cc1Oc1ccc(S(=O)(=O)Nc2nccs2)cc1C#N` [Example 359, 3-cyano-4-[5-iodo-2-(1-methyl-1H-pyrazol-5-yl)phenoxy]-N-1,3-thiazol-2-ylbenzenesulfonamide], 0.011 µM. Turning to `N#Cc1cc(S(=O)(=O)Nc2ncc(Cl)s2)ccc1Oc1ccc(Cl)cc1C1COC1` [Example 588, 4-(4-Chloro-2-oxetan-3-ylphenoxy)-N-(5-chloro-1,3-thiazol-2-yl)-3-cyanobenzenesulfonamide], the IC50 was 0.12 µM. Same read-out and setting: under `N#Cc1cc(S(=O)(=O)Nc2cscn2)ccc1Oc1ccc(C(F)(F)F)cc1-c1cnn(C2CNC2)c1` [Example 727, 4-[2-(1-azetidin-3-yl-1H-pyrazol-4-yl)-4-(trifluoromethyl)phenoxy]-3-cyano-N-1,3-thiazol-4-ylbenzenesulfonamide] stands 1.9 µM. As to `O=S(=O)(Nc1nncs1)c1cc(Cl)c(Oc2ccc(Cl)cc2-c2cn[nH]c2)cc1F` [Example 564, 5-chloro-4-[4-chloro-2-(1H-pyrazol-4-yl)phenoxy]-2-fluoro-N-1,3,4-thiadiazol-2-ylbenzenesulfonamide], the IC50 was 0.0092 µM. Consider `CC(C)(C)n1ccc(-c2cc(F)ccc2Oc2cc(F)c(S(=O)(=O)Nc3cscn3)cc2Cl)n1` [Example 520, 4-[2-(1-tert-butyl-1H-pyrazol-3-yl)-4-fluorophenoxy]-5-chloro-2-fluoro-N-1,3-thiazol-4-ylbenzenesulfonamide], for which the IC50 was greater than 1 µM. On the same count and under the same terms, under `CCc1cc(-n2cccn2)ccc1Oc1ccc(S(=O)(=O)Nc2nccs2)cc1C#N` [Example 489, 3-cyano-4-[2-ethyl-4-(1H-pyrazol-1-yl)phenoxy]-N-1,3-thiazol-2-ylbenzenesulfonamide] stands 1.2 µM.

For `N#Cc1cc(S(=O)(=O)Nc2nccs2)ccc1Oc1ccc(-c2ncccc2C(F)(F)F)cc1` [Example 457, 3-cyano-N-1,3-thiazol-2-yl-4-{4-[3-(trifluoromethyl)pyridin-2-yl]phenoxy}benzenesulfonamide], the IC50 was 2 µM. As to `N#Cc1cc(S(=O)(=O)Nc2ncns2)ccc1Oc1ccc(-n2cc(CO)cn2)cc1` [Example 288, 3-cyano-4-{4-[4-(hydroxymethyl)-1H-pyrazol-1-yl]phenoxy}-N-1,2,4-thiadiazol-5-ylbenzenesulfonamide], the IC50 is recorded as greater than 1 µM.

Take `Cn1nc(C(F)(F)F)cc1-c1cc(F)cc(Oc2ccc(S(=O)(=O)Nc3nccs3)cc2C#N)c1` [Example 653, 3-cyano-4-{3-fluoro-5-[1-methyl-3-(trifluoromethyl)-1H-pyrazol-5-yl]phenoxy}-N-1,3-thiazol-2-ylbenzenesulfonamide]: the IC50 is 1.1 µM. Same read-out and setting: under `N#Cc1cc(S(=O)(=O)Nc2ncns2)cc(F)c1Oc1ccc(Cl)cc1-c1cn[nH]c1` [Example 676, 4-[4-chloro-2-(1H-pyrazol-4-yl)phenoxy]-3-cyano-5-fluoro-N-1,2,4-thiadiazol-5-ylbenzenesulfonamide] stands 0.19 µM; under `CC(C)c1ccc(Oc2ccc(S(=O)(=O)Nc3nccs3)cc2C#N)c(-c2ccnn2C)c1` [Example 351, 3-cyano-4-[4-isopropyl-2-(1-methyl-1H-pyrazol-5-yl)phenoxy]-N-1,3-thiazol-2-ylbenzenesulfonamide], 0.018 µM.

The same experiment, now with this note: estimated IC50; hSCN9A HEK cells, PatchXpress platform; Examples 815-1040.
As to `CN1CC(n2nccc2-c2cc(OC(F)(F)F)ccc2Oc2cc(F)c(S(=O)(=O)Nc3nncs3)cc2Cl)C1` [Example 1017, 5-chloro-2-fluoro-4-{2-[1-(1-methylazetidin-3-yl)-1H-pyrazol-5-yl]-4-(trifluoromethoxy)phenoxy}-N-1,3,4-thiadiazol-2-ylbenzenesulfonamide], the IC50 was 0.0021 µM. Same read-out and setting: under `O=S(=O)(Nc1ncns1)c1ccc(Oc2ccc(C(F)(F)F)cc2-c2ccnnc2)c(C(F)(F)F)c1` [Example 976, 4-[2-pyridazin-4-yl-4-(trifluoromethyl)phenoxy]-N-1,2,4-thiadiazol-5-yl-3-(trifluoromethyl)benzenesulfonamide] stands 0.0025 µM; under `Cc1[nH]ncc1-c1cc(Cl)ccc1Oc1ccc(S(=O)(=O)Nc2ncns2)cc1C#N` [Example 865, 4-[4-chloro-2-(5-methyl-1H-pyrazol-4-yl)phenoxy]-3-cyano-N-1,2,4-thiadiazol-5-ylbenzenesulfonamide], 0.0044 µM. Same read-out and setting: under `O=S(=O)(Nc1nncs1)c1cc(Cl)c(Oc2cc(C(F)(F)F)ccc2-c2ccnnc2)cc1F` [Example 939, 5-chloro-2-fluoro-4-[2-pyridazin-4-yl-5-(trifluoromethyl)phenoxy]-N-1,3,4-thiadiazol-2-ylbenzenesulfonamide] stands 0.048 µM.
